Measurements: BindingDB's records for doi:10.1021/jm980023c (F. Hoffmann-La Roche, 1998)

What was measured:
[1] = molecular target: Beta-lactamase (Pseudomonas aeruginosa (strain ATCC 15692 / DSM 22644 / CIP 104116 / JCM 14847 / LMG 12228 / 1C / PRS 101 / PAO1), UniProt P24735); experiment: Deacylation of 18SH Beta-lactamase of Pseudomonas aeruginosa
[2] = molecular target: Beta-lactamase TEM-3 (Escherichia coli); experiment: Inhibitory activity against Escherichia coli TEM-3 Beta-lactamase

Sequence of Beta-lactamase (P24735 whole entry): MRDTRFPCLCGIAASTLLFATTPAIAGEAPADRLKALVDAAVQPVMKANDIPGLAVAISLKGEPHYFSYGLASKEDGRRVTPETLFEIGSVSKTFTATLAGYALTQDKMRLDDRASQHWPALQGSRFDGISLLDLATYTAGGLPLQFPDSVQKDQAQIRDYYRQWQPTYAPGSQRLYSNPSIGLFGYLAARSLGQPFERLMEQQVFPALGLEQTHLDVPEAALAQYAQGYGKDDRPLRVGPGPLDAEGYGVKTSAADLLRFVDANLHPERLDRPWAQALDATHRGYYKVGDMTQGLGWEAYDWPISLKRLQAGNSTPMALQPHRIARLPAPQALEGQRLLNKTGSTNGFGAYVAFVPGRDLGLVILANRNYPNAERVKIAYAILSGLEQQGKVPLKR

Row | Compound | koff [1] [s⁻¹] | IC50 [2] [µM]
1 | CC(C)(C)OC(=O)N1CC[C@@H]2[C@H]1C(=O)N2S(=O)(=O)O [Sodium; (1S,5R)-2-tert-butoxycarbonyl-7-oxo-2,6-diaza-bicyclo[3.2.0]heptane-6-sulfonate] | 0.000037 | > 100
2 | O=C(Nc1ccc(O)cc1)N1CC[C@@H]2[C@H]1C(=O)N2S(=O)(=O)O [Sodium; (1S,5R)-2-(4-hydroxy-phenylcarbamoyl)-7-oxo-2,6-diaza-bicyclo[3.2.0]heptane-6-sulfonate] |  | > 100
3 | Cn1nnnc1S[C@@H]1CN(C(=O)OCc2ccccc2)[C@@H]2C(=O)N(S(=O)(=O)O)[C@@H]21 [Sodium; (1S,4R,5S)-2-benzyloxycarbonyl-4-(1-methyl-1H-tetrazol-5-ylsulfanyl)-7-oxo-2,6-diaza-bicyclo[3.2.0]heptane-6-sulfonate] |  | 0.035
4 | O=C1NCC[C@@H]1NC(=O)N1CC[C@@H]2[C@H]1C(=O)N2S(=O)(=O)O [Sodium; (1S,5R)-7-oxo-2-((S)-2-oxo-pyrrolidin-3-ylcarbamoyl)-2,6-diaza-bicyclo[3.2.0]heptane-6-sulfonate] |  | > 100
5 | Cc1nn(C)c(SCC(=O)N2CC[C@@H]3[C@H]2C(=O)N3S(=O)(=O)O)nc1=O [Sodium; (1S,5R)-2-[2-(2,6-dimethyl-5-oxo-2,5-dihydro-[1,2,4]triazin-3-ylsulfanyl)-acetyl]-7-oxo-2,6-diaza-bicyclo[3.2.0]heptane-6-sulfonate] |  | > 100
6 | Cn1ccnc1SCC(=O)N1CC[C@@H]2[C@H]1C(=O)N2S(=O)(=O)O [Sodium; (1S,5R)-2-[2-(1-methyl-1H-imidazol-2-ylsulfanyl)-acetyl]-7-oxo-2,6-diaza-bicyclo[3.2.0]heptane-6-sulfonate] |  | > 100
7 | NC(=O)c1ccc[n+](CC(=O)N2CC[C@@H]3[C@H]2C(=O)N3S(=O)(=O)[O-])c1 |  | 0.7
8 | Cn1cnnc1SCC(=O)N1CC[C@@H]2[C@H]1C(=O)N2S(=O)(=O)O [Sodium; (1S,5R)-2-[2-(4-methyl-4H-[1,2,4]triazol-3-ylsulfanyl)-acetyl]-7-oxo-2,6-diaza-bicyclo[3.2.0]heptane-6-sulfonate] |  | > 100
9 | O=C(CNc1ccc(O)cc1)N1CC[C@@H]2[C@H]1C(=O)N2S(=O)(=O)O [Sodium; (1S,5R)-2-[2-(4-hydroxy-phenylamino)-acetyl]-7-oxo-2,6-diaza-bicyclo[3.2.0]heptane-6-sulfonate] |  | 79.2
10 | NC(=O)/C=C1\CN(C(=O)OCc2ccccc2)[C@@H]2C(=O)N(S(=O)(=O)O)[C@H]12 [Sodium; (1S,5R)-2-benzyloxycarbonyl-4-[1-carbamoyl-meth-(E)-ylidene]-7-oxo-2,6-diaza-bicyclo[3.2.0]heptane-6-sulfonate] |  | 0.031
11 | NC(=O)c1ccc(NC(=O)N2CC[C@@H]3[C@H]2C(=O)N3S(=O)(=O)O)cc1 [Sodium; (1S,5R)-2-(4-carbamoyl-phenylcarbamoyl)-7-oxo-2,6-diaza-bicyclo[3.2.0]heptane-6-sulfonate] |  | > 100
12 | O=C(NC1CCNCC1)N1CC[C@@H]2[C@H]1C(=O)N2S(=O)(=O)O [Sodium; (1S,5R)-7-oxo-2-(piperidin-4-ylcarbamoyl)-2,6-diaza-bicyclo[3.2.0]heptane-6-sulfonate] | 0.0012 | > 100
13 | O=C(OCc1ccccc1)N1C[C@H](F)[C@@H]2[C@H]1C(=O)N2S(=O)(=O)O [Sodium; (1S,4S,5S)-2-benzyloxycarbonyl-4-fluoro-7-oxo-2,6-diaza-bicyclo[3.2.0]heptane-6-sulfonate] |  | 0.511
14 | NC(=O)Nc1ccc(NC(=O)N2CC[C@@H]3[C@H]2C(=O)N3S(=O)(=O)O)cc1 [Sodium; (1S,5R)-7-oxo-2-(4-ureido-phenylcarbamoyl)-2,6-diaza-bicyclo[3.2.0]heptane-6-sulfonate] |  | 100
15 | O=C(OCc1ccccc1)N1CC[C@@H]2[C@H]1C(=O)N2S(=O)(=O)O [Sodium; (1S,5R)-2-benzyloxycarbonyl-7-oxo-2,6-diaza-bicyclo[3.2.0]heptane-6-sulfonate] |  | > 100
16 | CC(C)(C)OC(=O)N1CCC[C@@H]2[C@H]1C(=O)N2S(=O)(=O)O [Sodium; (1S,6R)-2-tert-butoxycarbonyl-8-oxo-2,7-diaza-bicyclo[4.2.0]octane-7-sulfonate] | 0.0007 | > 100
17 | NC(C(=O)N1CC[C@@H]2[C@H]1C(=O)N2S(=O)(=O)O)c1ccc(O)cc1 (stereo partly drawn) [Sodium; (1S,5R)-2-[2-amino-2-(4-hydroxy-phenyl)-acetyl]-7-oxo-2,6-diaza-bicyclo[3.2.0]heptane-6-sulfonate] |  | > 100
18 | Cn1nnnc1SCC(=O)N1CC[C@@H]2[C@H]1C(=O)N2S(=O)(=O)O [Sodium; (1S,5R)-2-[2-(1-methyl-1H-tetrazol-5-ylsulfanyl)-acetyl]-7-oxo-2,6-diaza-bicyclo[3.2.0]heptane-6-sulfonate] |  | > 100
19 | NC(=O)c1cccc(NC(=O)N2CC[C@@H]3[C@H]2C(=O)N3S(=O)(=O)O)c1 [Sodium; (1S,5R)-2-(3-carbamoyl-phenylcarbamoyl)-7-oxo-2,6-diaza-bicyclo[3.2.0]heptane-6-sulfonate] |  | 4
